Target: T1, Recombinant human HSP90a (Homo sapiens, UniProt P07900)
T1 construct: host or cells: E. coli
Assay: HSP90 radioligand filter binding test ([3H]17AAG competition)
Conditions: [3H]17AAG 0.08 μM, HSP90 1.5 μg/assay, 22° C., 30 min; read-out: IC50 (HSP90 inhibition)
Excerpt: Test Method for the Measurement of HSP90 Inhibitors
The binding of geldanamycin or 17-allylamino-17-demethoxygeldanamycin (17AAG) to HSP90 and competitive inhibition thereof can be utilised in order to determine the inhibitory activity of the compounds according to the invention (Carreras et al. 2003, Chiosis et al. 2002).
In the specific case, a radioligand filter binding test is used. The radioligand used here is tritium-labelled 17-allylaminogeldanamycin, [3H]17AAG. This filter binding test allows a targeted search for inhibitors which interfere with the ATP binding site.
Recombinant human HSP90a (E. coli expressed, 95% purity);
[3H]17AAG (17-allylaminogeldanamycin, [allylamino-2,3-^3H. Specific activity: 1.11×10^12 Bq/mmol (Moravek, MT-1717);
HEPES filter buffer (50 mM HEPES, pH 7.0, 5 mM MgCl2, BSA 0.01%)
Multiscreen FB (1 μm) filter plate (Millipore, MAFBNOB 50).
The 96-well microtitre filter plates are firstly irrigated and coated with 0.1% of polyethylenimine.
The test is carried out under the following conditions:
Reaction temperature 22° C.
Reaction time: 30 min., shaking at 800 rpm
50 mM HEPES HCl, pH 7.0, 5 mM MgCl2, 0.01% (w/v) of BSA
At the end of the reaction, the supernatant in the filter plate is removed by suction with the aid of a vacuum manifold (Multiscreen Separation System, Millipore), and the filter is washed twice.
The filter plates are then measured in a beta counter (Microbeta, Wallac) with scintillator (Microscint 20, Packard).
“% of control” is determined from the “counts per minutes” values, and the IC-50 value of a compound is calculated therefrom.

Question: `CCN(CCN(C)C)C(=O)c1cc(F)c(F)cc1-c1ccc2nc(N)nc(C(=O)N3Cc4ccccc4C3)c2c1` [Compound A76, 2-[2-Amino-4-(1,3-dihydroisoindole-2-carbonyl)quinazolin-6-yl]-N-(2-dimethylaminoethyl)-N-ethyl-4,5-difluorobenzamide] was tested. Which IC50 did it give?
Answer: 10 to 1000 nM

Question: For `CCN(C)C(=O)c1cc(F)c(F)cc1-c1ccc2nc(N)nc(C(=O)N3Cc4ccccc4C3)c2c1` [Compound A77, 2-[2-Amino-4-(1,3-dihydroisoindole-2-carbonyl)quinazolin-6-yl]-N-ethyl-4,5-difluoro-N-methylbenzamide], which IC50 is on record?
Answer: 10 to 1000 nM

Question: Which IC50 does the source give for `Nc1nc(C(=O)N2Cc3ccccc3C2)c2cc(-c3cc(F)c(F)cc3C(=O)N3CCCC3)ccc2n1` [Compound A78, {2-Amino-6-[4,5-difluoro-2-(pyrrolidine-1-carbonyl)phenyl]quinazolin-4-yl}-(1,3-dihydroisoindol-2-yl)methanone] here?
Answer: 10 to 1000 nM

Question: How did the IC50 turn out when `CC1CCCN1C(=O)c1cc(F)c(F)cc1-c1ccc2nc(N)nc(C(=O)N3Cc4ccccc4C3)c2c1` (stereo not shown) [Compound A79, {2-Amino-6-[4,5-difluoro-2-(2-methylpyrrolidine-1-carbonyl)phenyl]quinazolin-4-yl}-(1,3-dihydroisoindol-2-yl)methanone] was run?
Answer: 10 to 1000 nM

Question: Which IC50 does the source give for `Nc1nc(C(=O)N2Cc3ccccc3C2)c2cc(-c3cc(F)c(F)cc3C(=O)N3CCC3)ccc2n1` [Compound A80, {2-Amino-6-[2-(azetidine-1-carbonyl)-4,5-difluorophenyl]quinazolin-4-yl}-(1,3-dihydroisoindol-2-yl)methanone] here?
Answer: 10 to 1000 nM

Question: `CC(C)(C)NC(=O)c1cc(F)c(F)cc1-c1ccc2nc(N)nc(C(=O)N3Cc4ccccc4C3)c2c1` [Compound A81, 2-[2-Amino-4-(1,3-dihydroisoindole-2-carbonyl)quinazolin-6-yl]-N-tert-butyl-4,5-difluorobenzamide] was tested. Which IC50 did it give?
Answer: 10 to 1000 nM

Question: How did the IC50 turn out when `CCN(CCO)S(=O)(=O)c1ccc(F)cc1-c1ccc2nc(N)nc(C(=O)N3Cc4ccccc4C3)c2c1` [Compound A82] was run?
Answer: 10 to 1000 nM

Question: How did the IC50 turn out when `CCNC(=O)c1cc(F)ccc1-c1ccc2nc(N)nc(C(=O)N3Cc4ccccc4C3)c2c1` [Compound A83, 2-[2-Amino-4-(1,3-dihydroisoindole-2-carbonyl)quinazolin-6-yl]-N-ethyl-5-fluorobenzamide] was run?
Answer: 10 to 1000 nM

Question: For `CCNC(=O)c1cc(OC)c(OC)cc1-c1ccc2nc(N)nc(C(=O)N3Cc4ccccc4C3)c2c1` [Compound A84, 2-[2-Amino-4-(1,3-dihydroisoindole-2-carbonyl)quinazolin-6-yl]-N-ethyl-4,5-dimethoxybenzamide], which IC50 is on record?
Answer: > 10000 nM

Question: How did the IC50 turn out when `COc1cc(C(=O)NC(C)(C)C)c(-c2ccc3nc(N)nc(C(=O)N4Cc5ccccc5C4)c3c2)cc1OC` [Compound A85, 2-[2-Amino-4-(1,3-dihydroisoindole-2-carbonyl)quinazolin-6-yl]-N-tert-butyl-4,5-dimethoxybenzamide] was run?
Answer: > 10000 nM

Question: With `CCNC(=O)c1ccc(Cl)cc1-c1ccc2nc(N)nc(C(=O)N3Cc4ccccc4C3)c2c1` [Compound A86, 2-[2-Amino-4-(1,3-dihydroisoindole-2-carbonyl)quinazolin-6-yl]-4-chloro-N-ethylbenzamide] as the compound, how does the IC50 read?
Answer: 10 to 1000 nM

Question: `CCN(CC)C(=O)c1ccc(Cl)cc1-c1ccc2nc(N)nc(C(=O)N3Cc4ccccc4C3)c2c1` [Compound A87, 2-[2-Amino-4-(1,3-dihydroisoindole-2-carbonyl)quinazolin-6-yl]-4-chloro-N,N-diethylbenzamide] was tested. Which IC50 did it give?
Answer: 10 to 1000 nM

Question: Which IC50 does the source give for `CCN(CC)C(=O)c1cc(OC)c(OC)cc1-c1ccc2nc(N)nc(C(=O)N3Cc4ccccc4C3)c2c1` [Compound A88, 2-[2-Amino-4-(1,3-dihydroisoindole-2-carbonyl)quinazolin-6-yl]-N,N-diethyl-4,5-dimethoxybenzamide] here?
Answer: 1000 to 10000 nM
